Reference: patent US20230181482A1, “LIPIDS FOR DELIVERY OF NUCLEIC ACID SEGMENTS” (AstraZeneca AB, priority 2021, published 2023)

How the values were obtained:
[1] = system: Female BALB/c mice; assay: eGFP expression in the liver at 24 hours after intravenous administration of LNP formulations to mouse (ELISA); type: in vivo; settings: LNP N/P 3:1, DMPE-PEG2000
Text: Female BALB/c mice were purchased (SPF (Beijing) Laboratory Animal Technology Co. Ltd.) and on arrival were caged in groups of 4 on corncob bedding, with normal diet and were provided tap drinking water ad libitum that was purified and autoclaved before being offered to the animal. The environment was maintained at a target temperature of […] and relative humidity of 40-80%, with a 12-hour light/dark cycle. Animals were acclimatised to the housing conditions for at least 7 days prior to any experimental procedures and were approximately 6-8 weeks of age at the start of dosing
Animals were assigned to respective groups such that the mean body weights for each treatment groups will be equal. N=4 for each treatment group.
Formulations 1, 3, 4, 5, and 6 from Example 58 were each dosed intravenously: Each mouse was removed from its cage and restrained, and then dosed with a slow IV bolus of a formulation in the lateral tail vein at a dose […] of 0.3 mg/kg.
All animals were sacrificed 24 hours after dosing and flowing blood sampling the liver for the animals dosed by the IV route and the liver and muscle at the dose site for the IM dosed animals were harvested for eGFP analysis by ELISA.
Additional LNP formulations were prepared according to the procedures described in Example 46. These formulations were tested using the same protocol as described herein. The results of eGFP expression in the liver at 24 hours after intravenous administration of the formulations were summarized in Tables 3, 4, 5 and 6 below.

[2] = LNP particle size by dynamic light scattering (Zetasizer Nano ZS); type: physicochemical; settings: N/P ratio 3:1, DMPE-PEG2000
Protocol: (§1) A solution of eGFP mRNA (purchased from TriLink Biotechnologies) in citrate buffer was prepared by mixing mRNA dissolved in MilliQ-water, 100 mM citrate buffer (pH 3) and MilliQ-water to give a solution of 50 mM citrate. Lipid solution in ethanol (99.5%) was prepared with four different lipid components: ionizable lipid (see Table 1); cholesterol (Sigma-Aldrich); DSPC (distearoyl phosphatidyl choline, Avanti Polar Lipids Inc); and a polymer-conjugated lipid (see Table 1). The ratio of lipids in all experiments was ionizable lipid/cholesterol/DSPC/polymer-conjugated lipid (50/38.5/10/1.5 mol %). The total concentration of lipids in all experiments was 12.5 mM.
(§2) The mRNA and lipid solutions were mixed in a NanoAssemblr (Precision Nanosystems, Vancouver, BC, Canada) microfluidic mixing system at a mixing ratio of Aq:EtOH=3:1 and a constant flow rate of 12 mL/min. The mRNA in citrate buffer solution was prepared such that, at the time of mixing the ratio between the nitrogen atoms on the ionizable lipid and phosphorus atoms (N/P ratio) on the mRNA chain was either 3:1 or 6:1 (see Table 1).
The first 0.2-0.35 mL and the last 0.05-0.1 mL of the LNP suspension prepared were discarded while the rest of the volume was collected as the sample fraction. The size of the mRNA lipid nanoparticles was determined by dynamic light scattering measurements using a Zetasizer Nano ZS from Malvern Instruments Ltd, giving directly the z-average particle diameter. The number-weighted particle size distributions and averages were calculated using a particle refractive index of 1.45.

[3] = mRNA encapsulation efficiency of LNP formulations (Quant-it Ribogreen assay with Triton-X100); type: physicochemical; settings: N/P ratio 3:1, DMPE-PEG2000
Protocol: as §1, §2
The final mRNA concentration and encapsulation efficiency percentage (% EE) was measured by Quant-it Ribogreen Assay Kit (ThermoFischer Scientific Inc.) using Triton-X100 to disrupt the LNPs. The mRNA encapsulation efficiency was determined according to the following equation: […]

| Structure (SMILES) | Liver eGFP protein (ng/g tissue) ([1]; Table 4, 0.3 mg/kg) | <d>N (nm) ([2]; Table 4) | <d>Z (nm) ([2]; Table 4) | % EE ([3]; Table 4) [%] | also measured |
| --- | --- | --- | --- | --- | --- |
| CCCCCC(CCCCC)CCOC(=O)CCCCCCCCC(CCCCCCCCC(=O)OCCC(CCCCC)CCCCC)NC1CC2(COC2)C1 [Compound 14, bis(3-pentyloctyl) 10-((2-oxaspiro[3.3]heptan-6-yl)amino)nonadecanedioate] | – | – | – | – | Liver eGFP protein (ng/g tissue) ([1]; Table 3, 0.3 mg/kg): 8056.3 ng/g tissue; <d>N (nm) ([2]; Table 3): 61 nm; <d>Z (nm) ([2]; Table 3): 77 nm; % EE ([3]; Table 3): 95% |
| CCCCCC(CCCCC)CCOC(=O)CCCCCCCCC(CCCCCCCCC(=O)OCCC(CCCCC)CCCCC)NC1CCOCC1 [Compound 15, bis(3-pentyloctyl) 10-((tetrahydro-2H-pyran-4-yl)amino)nonadecanedioate] | 829.4 | 72 | 89 | 97 | – |
| CCCCCC(CCCCC)CCOC(=O)CCCCCCCCC(CCCCCCCCC(=O)OCCC(CCCCC)CCCCC)NCC1CCCCO1 (stereo not shown) [Compound 16, bis(3-pentyloctyl) 10-(((tetrahydro-2H-pyran-2-yl)methyl)amino)nonadecanedioate] | 1393.4 | 61 | 78 | 91 | – |
| CCCCCC(CCCCC)CCOC(=O)CCCCCCCCC(CCCCCCCCC(=O)OCCC(CCCCC)CCCCC)NCC1CCOCC1 [Compound 17, bis(3-pentyloctyl) 10-(((tetrahydro-2H-pyran-4-yl)methyl)amino)nonadecanedioate] | 6831.3 | 77 | 96 | 93 | – |
| CCCCCC(CCCCC)CCOC(=O)CCCCCCCCC(CCCCCCCCC(=O)OCCC(CCCCC)CCCCC)NCC1COC1 [Compound 18, bis(3-pentyloctyl) 10-((oxetan-3-ylmethyl)amino)nonadecanedioate] | 6817.5 | 67 | 86 | 97 | – |
| CCCCCCCCCOC(=O)CCCCCC(CCCCCC(=O)OC(CCCCCCCC)CCCCCCCC)NC1CC2(COC2)C1 (stereo not shown) [Compound 19, 1-(heptadecan-9-yl) 13-nonyl 7-((2-oxaspiro[3.3]heptan-6-yl)amino)tridecanedioate] | 9938.1 | 57 | 75 | 92 | – |
| CCCCCCCCCOC(=O)CCCCCC(CCCCCC(=O)OC(CCCCCCCC)CCCCCCCC)NCC1COC1 (stereo not shown) [Compound 20, 1-(heptadecan-9-yl) 13-nonyl 7-((oxetan-3-ylmethyl)amino)tridecanedioate] | 9757.7 | 53 | 67 | 97 | – |
| CCCCCCCCC(CCCCCCCC)OC(=O)CCCCCCCC(CCCCCCCC(=O)OCC(C)CCCCCCC)NCC1CCOC1 (stereo not shown) [Compound 21, 1-(heptadecan-9-yl) 17-(2-methylnonyl) 9-(((tetrahydrofuran-3-yl)methyl)amino)heptadecanedioate] | – | – | – | – | Liver eGFP protein (ng/g tissue) ([1]; Table 5, 0.3 mg/kg): 4103.6 ng/g tissue; <d>N (nm) ([2]; Table 5): 57 nm; <d>Z (nm) ([2]; Table 5): 72 nm; % EE ([3]; Table 5): 97% |
| CCCCCCCCC(CCCCCCCC)OC(=O)CCCCCCCC(CCCCCCCC(=O)OCC(C)CCCCCCC)NC1CC2(COC2)C1 (stereo not shown) [Compound 22, 1-(heptadecan-9-yl) 17-(2-methylnonyl) 9-((2-oxaspiro[3.3]heptan-6-yl)amino)heptadecanedioate] | – | – | – | – | Liver eGFP protein (ng/g tissue) ([1]; Table 5, 0.3 mg/kg): 4570.6 ng/g tissue; <d>N (nm) ([2]; Table 5): 63 nm; <d>Z (nm) ([2]; Table 5): 90 nm; % EE ([3]; Table 5): 95% |
| CCCCCCCCC(CCCCCCCC)OC(=O)CCCCCCC(CCCCCCC(=O)OC(CCCCCCCC)CCCCCCCC)NC1CC2(COC2)C1 [Compound 23, di(heptadecan-9-yl) 8-((2-oxaspiro[3.3]heptan-6-yl)amino)pentadecanedioate] | 2318.8 | 45 | 62 | 96 | – |
| CCCCCCCCCOC(=O)CCCCCCC(CCCCCCC(=O)OC(CCCCCCCC)CCCCCCCC)NC1CC2(COC2)C1 (stereo not shown) [Compound 24, 1-(heptadecan-9-yl) 15-nonyl 8-((2-oxaspiro[3.3]heptan-6-yl)amino)pentadecanedioate] | 748.9 | 52 | 71 | 94 | – |
| CCCCCCCCC(C)OC(=O)CCCCCCC(CCCCCCC(=O)OC(CCCCCCCC)CCCCCCCC)NC1CC2(COC2)C1 (stereo not shown) [Compound 25, 1-(decan-2-yl) 15-(heptadecan-9-yl) 8-((2-oxaspiro[3.3]heptan-6-yl)amino)pentadecanedioate] | 15961.7 | 50 | 69 | 94 | – |
| CCCCCCCCC(CCCCCCCC)OC(=O)CCCCCCC(CCCCCCC(=O)OCCCCCCCC(C)C)NC1CC2(COC2)C1 (stereo not shown) [Compound 26, 1-(heptadecan-9-yl) 15-(8-methylnonyl) 8-((2-oxaspiro[3.3]heptan-6-yl)amino)pentadecanedioate] | 824.8 | 50 | 75 | 94 | – |
| CCCCCCCCC(CCCCCCCC)OC(=O)CCCCCCC(CCCCCCC(=O)OCCC(CCCCCCC)CCCCCCC)NC1CC2(COC2)C1 (stereo not shown) [Compound 27, 1-(heptadecan-9-yl) 15-(3-heptyldecyl) 8-((2-oxaspiro[3.3]heptan-6-yl)amino)pentadecanedioate] | 4982.6 | 55 | 98 | 97 | – |
| CCCCCCCC(CCCCCCC)COC(=O)CCCCCCC(CCCCCCC(=O)OCC(CCCCCCC)CCCCCCC)NC1CC2(COC2)C1 [Compound 28, Bis(2-heptylnonyl) 8-((2-oxaspiro[3.3]heptan-6-yl)amino)pentadecanedioate] | 9557.1 | 80 | 129 | 97 | – |
| CCCCCCCCC(C)OC(=O)CCCCCCC(CCCCCCC(=O)OCC(CCCCCCC)CCCCCCC)NC1CC2(COC2)C1 (stereo not shown) [Compound 29, 1-(decan-2-yl) 15-(2-heptylnonyl) 8-((2-oxaspiro[3.3]heptan-6-yl)amino)pentadecanedioate] | 1288.4 | 51 | 71 | 90 | – |
| CCCCCCCCC(CCCCCCCC)OC(=O)CCCCCCCC(CCCCCCCC(=O)OC(CCCCCCCC)CCCCCCCC)NC1CC2(COC2)C1 [Compound 31, Di(heptadecan-9-yl) 9-((2-oxaspiro[3.3]heptan-6-yl)amino)heptadecanedioate] | 1319.3 | 47 | 62 | 94 | – |
| CCCCCCCCC(C)OC(=O)CCCCCCCC(CCCCCCCC(=O)OC(CCCCCCCC)CCCCCCCC)NC1CC2(COC2)C1 (stereo not shown) [Compound 32, 1-(decan-2-yl) 17-(heptadecan-9-yl) 9-((2-oxaspiro[3.3]heptan-6-yl)amino)heptadecanedioate] | 16518.2 | 56 | 72 | 94 | – |
| CCCCCCCCC(CCCCCCCC)OC(=O)CCCCCCCC(CCCCCCCC(=O)OCC(CCCCCCC)CCCCCCC)NC1CC2(COC2)C1 (stereo not shown) [Compound 33, 1-(heptadecan-9-yl) 17-(2-heptylnonyl) 9-((2-oxaspiro[3.3]heptan-6-yl)amino)heptadecanedioate] | 1056.2 | 53 | 67 | 97 | – |
